In US20260207614A1, “IRAK4 DEGRADERS AND USES THEREOF” (Kymera Therapeutics, Inc., priority 2022, published 2026):

Columns and labels:
[1] = Excretion study in bile duct-cannulated (BDC) rats; assay type: in vivo
[2] = Distribution studies in rats; assay type: in vivo
Excerpt: (§1) In in vivo pharmacokinetic (PK) studies conducted in rats, dogs, and monkeys.

[3] = Plasma protein binding and red blood cell partitioning; assay type: in vitro ADME, nonclinical species and humans
[4] = test system: disease-relevant cytokines ex vivo; assay: Phase 1 Part C ex vivo cytokine stimulation assays; assay type: in vivo, human
Excerpt: Plots show median of the maximum change from baseline between Days 7-14 in MAD3 and Days 14-28 in Part C.
IL-36, IFN-g, IL-8, IL-5, GZMB and COX2 in HS and IL-5, IL-31, NLRP3, CXCL1 and IL-2RB in AD (FIG. 25A-B).

[5] = test system: R848 (TLR7)-stimulated cytokine induction in whole blood; assay: Phase 1 SAD ex vivo R848-stimulated cytokine induction in whole blood; design: species or system human
[6] = test system: MSU-crystal induced (TLR 2/4-dependent) inflammation; assay: Mouse air pouch model of MSU-crystal induced inflammation; assay type: in vivo
Excerpt: Overall, efficacy was associated with achieving at least 80% or more IRAK4 knockdown in associated tissues in the model systems.

[7] = test system: proinflammatory gene transcripts; assay: Phase 1 Part C proinflammatory gene transcripts in skin lesions (RNAseq); assay type: in vivo, human; settings: Day 28 compared to baseline
IRAK4 = target: T1, IRAK4 (Canis lupus familiaris, UniProt A0A8I3S726); assay: In vitro IRAK4 degradation, dog PBMCs; assay type: cell-based; settings: read-out: DC50 (IRAK4 degradation)
T1 construct: endogenous in cells; host or cells: dog PBMCs
T1 sequence (A0A8I3S726 1-460): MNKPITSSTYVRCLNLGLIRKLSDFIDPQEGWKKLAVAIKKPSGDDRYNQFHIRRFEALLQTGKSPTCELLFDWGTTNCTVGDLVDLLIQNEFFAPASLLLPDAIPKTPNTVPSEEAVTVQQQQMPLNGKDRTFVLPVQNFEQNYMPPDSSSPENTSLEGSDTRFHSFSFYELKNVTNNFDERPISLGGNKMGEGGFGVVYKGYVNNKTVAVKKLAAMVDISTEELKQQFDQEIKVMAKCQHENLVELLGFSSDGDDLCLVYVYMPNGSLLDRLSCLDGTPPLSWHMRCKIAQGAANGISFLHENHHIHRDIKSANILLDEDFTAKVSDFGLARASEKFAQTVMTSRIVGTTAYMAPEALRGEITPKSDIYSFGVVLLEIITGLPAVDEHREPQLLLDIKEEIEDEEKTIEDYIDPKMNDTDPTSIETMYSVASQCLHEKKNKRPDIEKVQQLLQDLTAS

[8] = Phase 1 MAD Compound A concentration in skin; assay type: in vivo; settings: human, oral, Day 14, once daily dosing, read-out: Ctrough (pre-dose) levels in skin relative to plasma
P-glycoprotein (P-gp) = P-glycoprotein (P-gp) (Homo sapiens, UniProt P08183); assay: P-gp substrate assessment in vitro; assay type: in vitro ADME
Excerpt: as §1
(§2) Metabolites generated in liver microsomes from humans were also detected in those from rat, dog, and monkey. In the in vitro drug-drug interaction studies.

[9] = test system: ex vivo proinflammatory cytokine induction by R848 and LPS in whole blood; assay: Phase 1 MAD ex vivo cytokine induction by R848 and LPS in whole blood; design: species or system human; settings: daily up to about 200 mg, Day 7-14, FIG. 16
Excerpt: In some embodiments, the cytokines include IFN-γ, IL-12, IL-1β, IL-10, IL-6, TNF-α, IL-8, IL-17, and IL-23.

[10] = target: T2, breast cancer resistance protein (BCRP) (Homo sapiens, UniProt Q9UNQ0); assay: BCRP substrate and efflux inhibition in vitro; assay type: in vitro ADME
T2 sequence (Q9UNQ0 1-655): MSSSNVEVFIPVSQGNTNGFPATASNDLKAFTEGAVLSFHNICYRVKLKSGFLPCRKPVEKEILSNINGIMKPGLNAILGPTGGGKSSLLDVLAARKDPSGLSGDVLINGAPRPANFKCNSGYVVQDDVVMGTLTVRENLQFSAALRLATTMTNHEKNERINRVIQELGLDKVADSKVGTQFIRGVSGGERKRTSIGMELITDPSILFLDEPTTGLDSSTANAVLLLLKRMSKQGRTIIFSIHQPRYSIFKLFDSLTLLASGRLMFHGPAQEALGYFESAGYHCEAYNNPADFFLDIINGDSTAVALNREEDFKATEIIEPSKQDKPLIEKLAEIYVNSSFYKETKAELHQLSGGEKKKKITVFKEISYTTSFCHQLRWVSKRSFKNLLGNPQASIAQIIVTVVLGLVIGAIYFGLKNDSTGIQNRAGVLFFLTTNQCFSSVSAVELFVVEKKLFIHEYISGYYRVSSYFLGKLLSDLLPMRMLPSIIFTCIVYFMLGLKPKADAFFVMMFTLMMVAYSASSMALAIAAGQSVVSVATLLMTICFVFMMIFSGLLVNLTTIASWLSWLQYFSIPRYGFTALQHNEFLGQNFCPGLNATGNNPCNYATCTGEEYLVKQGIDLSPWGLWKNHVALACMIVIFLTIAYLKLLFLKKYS
Excerpt: as §1, §2

[11] = R848, whole blood, 24-48 hours, Cohort 7
[12] = 30 to 100 mg/kg twice daily, 3 days

Sequence of P-glycoprotein (P-gp) (P08183 whole entry): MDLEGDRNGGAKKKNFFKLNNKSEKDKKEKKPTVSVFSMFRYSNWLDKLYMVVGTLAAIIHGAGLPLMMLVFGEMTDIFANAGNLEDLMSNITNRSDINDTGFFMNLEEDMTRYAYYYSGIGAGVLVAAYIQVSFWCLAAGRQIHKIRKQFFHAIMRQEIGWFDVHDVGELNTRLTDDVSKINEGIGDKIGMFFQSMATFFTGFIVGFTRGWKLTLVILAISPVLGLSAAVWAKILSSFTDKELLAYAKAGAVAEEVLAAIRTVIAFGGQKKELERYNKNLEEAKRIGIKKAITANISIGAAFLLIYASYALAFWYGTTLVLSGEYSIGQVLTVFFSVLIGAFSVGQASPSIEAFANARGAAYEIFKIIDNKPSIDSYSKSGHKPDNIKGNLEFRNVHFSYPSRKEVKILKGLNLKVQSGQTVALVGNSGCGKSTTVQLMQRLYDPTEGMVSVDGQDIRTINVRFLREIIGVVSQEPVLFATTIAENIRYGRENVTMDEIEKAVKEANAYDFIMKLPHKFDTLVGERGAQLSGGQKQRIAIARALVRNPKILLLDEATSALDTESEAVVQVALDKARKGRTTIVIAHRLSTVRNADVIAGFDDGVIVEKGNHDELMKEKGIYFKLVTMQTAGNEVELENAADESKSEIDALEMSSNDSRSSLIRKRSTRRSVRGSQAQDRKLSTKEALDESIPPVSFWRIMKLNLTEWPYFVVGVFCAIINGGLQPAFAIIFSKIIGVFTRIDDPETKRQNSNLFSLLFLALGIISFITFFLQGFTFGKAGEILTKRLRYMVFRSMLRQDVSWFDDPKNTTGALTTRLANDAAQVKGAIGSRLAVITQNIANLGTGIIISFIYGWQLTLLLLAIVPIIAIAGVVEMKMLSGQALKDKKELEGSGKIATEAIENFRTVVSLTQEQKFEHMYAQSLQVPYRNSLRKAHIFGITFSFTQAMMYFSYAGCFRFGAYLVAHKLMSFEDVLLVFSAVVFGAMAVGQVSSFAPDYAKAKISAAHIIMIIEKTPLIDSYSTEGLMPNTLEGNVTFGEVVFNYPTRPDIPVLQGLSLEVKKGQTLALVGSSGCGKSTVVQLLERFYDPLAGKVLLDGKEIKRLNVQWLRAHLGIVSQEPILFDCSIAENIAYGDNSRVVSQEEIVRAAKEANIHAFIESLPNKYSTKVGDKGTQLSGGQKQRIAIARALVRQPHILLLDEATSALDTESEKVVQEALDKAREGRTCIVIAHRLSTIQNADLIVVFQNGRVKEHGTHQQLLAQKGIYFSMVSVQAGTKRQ

Cn1c(=O)n([C@@H]2CCC(=O)NC2=O)c2cccc(C#CCOC3CCN(C[C@H]4CC[C@H](n5cc(NC(=O)c6cnn7ccc(N8C[C@H]9C[C@@H]8CO9)nc67)c(C(F)F)n5)CC4)CC3)c21 [Compound A, 5-((1R,4R)-2-oxa-5-azabicyclo[2.2.1]heptan-5-yl)-N-(3-(difluoromethyl)-1-((1r,4R)-4-((4-((3-(1-(2,6-dioxopiperidin-3-yl)-3-methyl-2-oxo-2,3-dihydro-1H-benzo[d]imidazol-4-yl)prop-2-yn-1-yl)oxy)piperidin-1-yl)methyl)cyclohexyl)-1H-pyrazol-4-yl)pyrazolo[1,5-a]pyrimidine-3-carboxamide]
biliary and intestinal excretion as parent drug [1]: minor to moderate
renal clearance [1]: negligible
penetration into the central nervous system (CNS) [2]: limited penetration
tissue distribution [2]: extensively distributed into tissues
partitioning into red blood cells [3]: did not significantly partition into red blood cells
plasma protein binding ([3]; across nonclinical species and humans): highly bound
inhibition of disease-relevant cytokines ex vivo, maximum ([4]; AD patients): up to 98%
cytokine inhibition, IFN-γ ([4]; AD patients, FIG. 23): up to 95%
cytokine inhibition, IL-1β ([4]; AD patients, FIG. 23): up to 81%
cytokine inhibition, IL-6 ([4]; AD patients, FIG. 23): up to 74%
cytokine inhibition, IL-8 ([4]; AD patients, FIG. 23): up to 85%
cytokine inhibition, IL-10 ([4]; AD patients, FIG. 23): up to 98%
cytokine inhibition, IL-12 ([4]; AD patients, FIG. 23): up to 76%
cytokine inhibition, IL-17 ([4]; AD patients, FIG. 23): up to 83%
cytokine inhibition, IL-23 ([4]; AD patients, FIG. 23): up to 95%
cytokine inhibition, TNF-α ([4]; AD patients, FIG. 23): up to 74%
inhibition of disease-relevant cytokines ex vivo, maximum ([4]; HS patients): up to 84%
cytokine inhibition, IFN-γ ([4]; HS patients, FIG. 23): up to 76%
cytokine inhibition, IL-1β ([4]; HS patients, FIG. 23): up to 57%
cytokine inhibition, IL-6 ([4]; HS patients, FIG. 23): up to 50%
cytokine inhibition, IL-8 ([4]; HS patients, FIG. 23): up to 59%
cytokine inhibition, IL-10 ([4]; HS patients, FIG. 23): up to 52%
cytokine inhibition, IL-12 ([4]; HS patients, FIG. 23): up to 84%
cytokine inhibition, IL-17 ([4]; HS patients, FIG. 23): up to 46%
cytokine inhibition, TNF-α ([4]; HS patients, FIG. 23): up to 54%
inhibition of 9 disease-relevant cytokines ex vivo, maximum ([4]; HS/AD patients, median of maximum change from baseline Days 14-28): up to 98%
Mean Maximum Percent Change from Baseline in ex vivo IFNγ induction [5, 11]: −97%^2
Mean Maximum Percent Change from Baseline in ex vivo IL1β induction [5, 11]: −92%^1
Mean Maximum Percent Change from Baseline in ex vivo IL6 induction [5, 11]: −88%^1
Mean Maximum Percent Change from Baseline in ex vivo IL8 induction [5, 11]: −54%^
Mean Maximum Percent Change from Baseline in ex vivo IL10 induction [5, 11]: −89%^1
Mean Maximum Percent Change from Baseline in ex vivo IL12 induction [5, 11]: −93%^1
Mean Maximum Percent Change from Baseline in ex vivo IL17 induction [5, 11]: −79%^1
Mean Maximum Percent Change from Baseline in ex vivo TNFα induction [5, 11]: −88%^2
mean maximum ex vivo cytokine inhibition ([5]; SAD, R848- or LPS-mediated induction, whole blood, 24-48 h post-dose): up to 97%
inhibition of R848 or LPS induction of 8 different pro-inflammatory cytokines ([5]; SAD, whole blood, maxima across cytokines): 79-97%
IRAK4 levels in the spleen [6, 12]: significantly reduced
inflammatory exudate, including neutrophils and IL-1β [6, 12]: significantly reduced
IRAK4 knockdown in associated tissues associated with efficacy ([6]; murine inflammation model systems overall): at least 80%
downregulation of proinflammatory gene transcripts in skin lesions (IL-5, IL-31, NLRP3, CXCL1, IL-2RB) ([7]; AD patients): > 25%
downregulation of proinflammatory gene transcripts in skin lesions (IL-1b, IL-17, IL-36, IFN-g, IL-8, IL-5, GZMB, COX2) ([7]; HS patients): > 25%
DC50 (IRAK4): < 10 nM
Kp at 14 day [8]: ~10
substrate of P-glycoprotein (P-gp) (P-glycoprotein (P-gp)): substrate
inhibition of IFN-γ [9]: up to 85%
inhibition of IL-1β [9]: up to 68%
inhibition of IL-6 [9]: up to 54%
inhibition of IL-8 [9]: up to 46%
inhibition of IL-10 [9]: up to 50%
inhibition of IL-12 [9]: up to 72%
inhibition of IL-17 [9]: up to 46%
inhibition of TNF-α [9]: up to 59%
inhibition of BCRP efflux [10]: inhibited BCRP efflux
substrate of breast cancer resistance protein (BCRP) [10]: substrate
